In brackets after ≈: the same amount, converted by molar mass.

What all share (assay type): cell-based
One assay deals with Klebsiella aerogenes. Put plainly: antibacterial spectrum in vitro (Table I), MIC.
The subject of a further assay is Diplococcus pneumoniae. Put plainly: antibacterial spectrum in vitro (Table I), MIC.
The next assay concerns E. coli. Put plainly: antibacterial spectrum in vitro (Table I), MIC.
Assay [1] has as its system Streptococcus haemolyticus. Put plainly: antibacterial spectrum in vitro (Table I), MIC.
Source text: (§1) The above Table I illustrates antibacterial spectrum in vitro, using some pathogene microorganisms freshly isolated from patients.
The subject of assay [2] is Staphylococcus pyog. aureus. Put plainly: antibacterial spectrum in vitro (Table I), MIC.
Source text: as §1
For the next assay, the system named is Pseudomonas aeruginosa. Put plainly: antibacterial spectrum in vitro (Table I), MIC.
The test system of a further assay is Enterococcus. Put plainly: antibacterial spectrum in vitro (Table I), MIC.
In a further assay the test system is Proteus mirabilis. Put plainly: antibacterial spectrum in vitro (Table I), MIC.
Assay [3] deals with Streptococcus haemolyticus 69. Put plainly: testing against a set of organisms (Table II), MIC. The note with it: Streptococcus haemolyticus 69, Table II.
For assay [4], the system named is Streptococcus haemolyticus 099. Put plainly: testing against a set of organisms (Table II), MIC. The conditions noted are these: Streptococcus haemolyticus 099, Table II.
The subject of assay [5] is Staphylococcus aureus 736. Put plainly: testing against a set of organisms (Table II), MIC. The conditions noted are these: Staphylococcus aureus 736, Table II.
For a further assay, the system named is Enterococcus 146. Put plainly: testing against a set of organisms (Table II), MIC. The conditions noted are these: Enterococcus 146, Table II.
The subject of another assay is Enterococcus 242. Put plainly: testing against a set of organisms (Table II), MIC. The conditions noted are these: Enterococcus 242, Table II.
Another assay deals with Enterococcus 45. Put plainly: testing against a set of organisms (Table II), MIC. The conditions noted are these: Enterococcus 45, Table II.
The next assay concerns Enterococcus 325. Put plainly: testing against a set of organisms (Table II), MIC. The conditions noted are these: Enterococcus 325, Table II.
The test system of assay [6] is Staphylococcus aureus 372. Put plainly: testing against a set of organisms (Table II), MIC. The conditions noted are these: Staphylococcus aureus 372, Table II.

Source text for Diplococcus pneumoniae: as §1
Source text for Klebsiella aerogenes: as §1
Source text for Pseudomonas aeruginosa: as §1

Turning to `CC[C@H]1OC(=O)[C@H](C)[C@@H](O[C@H]2C[C@@](C)(OC)[C@@H](O)[C@H](C)O2)[C@H](C)[C@@H](O[C@@H]2O[C@H](C)C[C@H](N(C)C)[C@H]2O)[C@](C)(O)C[C@@H](C)C(=O)[C@H](C)[C@@H](O)[C@]1(C)O` [E, erythromycin, reference compound], the MIC (usually the lowest concentration found to suppress growth) in the assay with Klebsiella aerogenes came out at 500 µg/mL (≈ 681 µM); against Diplococcus pneumoniae it was 62.5 µg/mL (≈ 85.2 µM); with E. coli, 250 µg/mL (≈ 341 µM); in [1], 31.2 µg/mL (≈ 42.5 µM); in assay [2], 62.5 µg/mL (≈ 85.2 µM); with Pseudomonas aeruginosa, 500 µg/mL (≈ 681 µM). Further, the MIC in the assay with Enterococcus was 31.2 µg/mL (≈ 42.5 µM); against Proteus mirabilis, 500 µg/mL (≈ 681 µM).

Turning to `CCC1OC(=O)C(C)C(OC2CC(C)(OC)C(O)C(C)O2)C(C)C(OC2OC(C)CC(N(C)C)C2O)C(C)(O)CC(C)C(NS(=O)(=O)c2ccc(NC(C)=O)cc2)C(C)C(O)C1(C)O` (stereo not drawn) [EAAc, N-(4-acetylamino-benzenesulfonyl)erythromycylamine], the MIC in assay [3] came out at 0.9 µg/mL (≈ 0.965 µM); in assay [4], 1.9 µg/mL (≈ 2.04 µM); against Klebsiella aerogenes, 62.5 µg/mL (≈ 67 µM); with Diplococcus pneumoniae, 1.9 µg/mL (≈ 2.04 µM); in assay [5], 31.2 µg/mL (≈ 33.5 µM); in the assay on Enterococcus 146 it was 31.2 µg/mL (≈ 33.5 µM). Further, the minimum inhibitory concentration (MIC) in assay [1] stood at 0.45 µg/mL (≈ 0.483 µM); in assay [2], 15.6 µg/mL (≈ 16.7 µM); with Pseudomonas aeruginosa, 250.0 µg/mL (≈ 268 µM); in the assay on Enterococcus 242, 62.5 µg/mL (≈ 67 µM); in the assay on Enterococcus, 1.9 µg/mL (≈ 2.04 µM); against Proteus mirabilis it was 125 µg/mL (≈ 134 µM). Besides, the MIC came out at 125.0 µg/mL (≈ 134 µM) against Enterococcus 45, 62.5 µg/mL (≈ 67 µM) with Enterococcus 325 and 15.6 µg/mL (≈ 16.7 µM) in assay [6].

As for `CCC1OC(=O)C(C)C(OC2CC(C)(OC)C(O)C(C)O2)C(C)C(OC2OC(C)CC(N(C)C)C2O)C(C)(O)CC(C)C(NS(=O)(=O)c2ccc(Br)cc2)C(C)C(O)C1(C)O` (stereo not drawn) [EABr, N-(4-bromo-benzenesulfonyl)erythromycylamine], the minimal inhibitory concentration (MIC) was found to be 0.9 µg/mL (≈ 0.943 µM) in assay [3]; 0.9 µg/mL (≈ 0.943 µM) in [4]; 62.5 µg/mL (≈ 65.5 µM) in the assay with Klebsiella aerogenes; 3.9 µg/mL (≈ 4.09 µM) against Diplococcus pneumoniae; 7.8 µg/mL (≈ 8.18 µM) in assay [5]; 3.9 µg/mL (≈ 4.09 µM) with Enterococcus 146. For the same molecule, the MIC against E. coli is 125.0 µg/mL (≈ 131 µM); in assay [1], 0.9 µg/mL (≈ 0.943 µM); in assay [2] it was 31.2 µg/mL (≈ 32.7 µM); with Pseudomonas aeruginosa it was 250.0 µg/mL (≈ 262 µM); in the assay on Enterococcus 242, 3.9 µg/mL (≈ 4.09 µM); against Enterococcus it was 1.9 µg/mL (≈ 1.99 µM). Further, the MIC against Proteus mirabilis worked out at 250 µg/mL (≈ 262 µM); against Enterococcus 45 it was 7.8 µg/mL (≈ 8.18 µM); in the assay with Enterococcus 325 it was 3.9 µg/mL (≈ 4.09 µM); in assay [6], 3.9 µg/mL (≈ 4.09 µM).

As to `CCC1OC(=O)C(C)C(OC2CC(C)(OC)C(O)C(C)O2)C(C)C(OC2OC(C)CC(N(C)C)C2O)C(C)(O)CC(C)C(NS(=O)(=O)c2ccc(Cl)cc2)C(C)C(O)C1(C)O` (stereo not drawn) [EACl, N-(4-chloro-benzenesulfonyl)erythromycylamine], the MIC was found to be 0.9 µg/mL (≈ 0.989 µM) in assay [3]; 0.9 µg/mL (≈ 0.989 µM) in assay [4]; 125 µg/mL (≈ 137 µM) against Klebsiella aerogenes; 1.9 µg/mL (≈ 2.09 µM) against Diplococcus pneumoniae; 31.2 µg/mL (≈ 34.3 µM) in assay [5]; 7.8 µg/mL (≈ 8.58 µM) against Enterococcus 146. Moreover, the MIC was 62.5 µg/mL (≈ 68.7 µM) against E. coli; 0.9 µg/mL (≈ 0.989 µM) in [1]; 31.2 µg/mL (≈ 34.3 µM) in [2]; 250.0 µg/mL (≈ 275 µM) against Pseudomonas aeruginosa; 3.9 µg/mL (≈ 4.29 µM) with Enterococcus 242; 3.9 µg/mL (≈ 4.29 µM) in the assay on Enterococcus. Besides, the minimal inhibitory concentration (MIC) was 250 µg/mL (≈ 275 µM) in the assay with Proteus mirabilis, 3.9 µg/mL (≈ 4.29 µM) in the assay with Enterococcus 45, 7.8 µg/mL (≈ 8.58 µM) in the assay with Enterococcus 325 and 3.9 µg/mL (≈ 4.29 µM) in assay [6].

For the molecule `CCc1ccc(S(=O)(=O)NC2C(C)CC(C)(O)C(OC3OC(C)CC(N(C)C)C3O)C(C)C(OC3CC(C)(OC)C(O)C(C)O3)C(C)C(=O)OC(CC)C(C)(O)C(O)C2C)cc1` (stereo not drawn) [EAE, N-(4-ethyl-benzenesulfonyl)erythromycylamine], the MIC in assay [3] was determined as 0.9 µg/mL (≈ 0.996 µM); in assay [4], 0.9 µg/mL (≈ 0.996 µM); in [5] it was 31.2 µg/mL (≈ 34.5 µM); against Enterococcus 146, 7.8 µg/mL (≈ 8.64 µM); with Enterococcus 242 it was 3.9 µg/mL (≈ 4.32 µM); against Enterococcus 45, 7.8 µg/mL (≈ 8.64 µM). In addition, the MIC worked out at 3.9 µg/mL (≈ 4.32 µM) with Enterococcus 325 and 7.8 µg/mL (≈ 8.64 µM) in assay [6].

Consider `CCC1OC(=O)C(C)C(OC2CC(C)(OC)C(O)C(C)O2)C(C)C(OC2OC(C)CC(N(C)C)C2O)C(C)(O)CC(C)C(NS(=O)(=O)c2ccc(F)cc2)C(C)C(O)C1(C)O` (stereo not drawn) [EAF, N-(4-fluoro-benzenesulfonyl)erythromycylamine], for which the minimal inhibitory concentration (MIC) in [3] was 3.9 µg/mL (≈ 4.37 µM); in assay [4], less than 0.9 µg/mL; in assay [5] it was 31.2 µg/mL (≈ 34.9 µM); against Enterococcus 146, 7.8 µg/mL (≈ 8.73 µM); against Enterococcus 242, 3.9 µg/mL (≈ 4.37 µM); in the assay with Enterococcus 45, 7.8 µg/mL (≈ 8.73 µM). Also, the MIC with Enterococcus 325 is 7.8 µg/mL (≈ 8.73 µM); in [6], 15.6 µg/mL (≈ 17.5 µM).

In the case of `CCC1OC(=O)C(C)C(OC2CC(C)(OC)C(O)C(C)O2)C(C)C(OC2OC(C)CC(N(C)C)C2O)C(C)(O)CC(C)C(NS(=O)(=O)c2ccc(I)cc2)C(C)C(O)C1(C)O` (stereo not drawn) [EAI, N-(4-iodo-benzenesulfonyl)erythromycylamine], the MIC came to 0.9 µg/mL (≈ 0.899 µM) in [3]; 0.9 µg/mL (≈ 0.899 µM) in assay [4]; 15.6 µg/mL (≈ 15.6 µM) in assay [5]; 3.9 µg/mL (≈ 3.9 µM) against Enterococcus 146; 7.8 µg/mL (≈ 7.79 µM) with Enterococcus 242; 7.8 µg/mL (≈ 7.79 µM) in the assay with Enterococcus 45. The minimal inhibitory concentration (MIC) (with Enterococcus 325; in assay [6]) was 3.9 µg/mL (≈ 3.9 µM) throughout.

With `CCC(=O)Nc1ccc(S(=O)(=O)NC2C(C)CC(C)(O)C(OC3OC(C)CC(N(C)C)C3O)C(C)C(OC3CC(C)(OC)C(O)C(C)O3)C(C)C(=O)OC(CC)C(C)(O)C(O)C2C)cc1` (stereo not drawn) [EAPr, N-(4-propionylamino-benzenesulfonyl)erythromycylamine], the MIC in [3] came out at 0.9 µg/mL (≈ 0.951 µM); in assay [4], 0.9 µg/mL (≈ 0.951 µM); in assay [5], 15.6 µg/mL (≈ 16.5 µM); in the assay with Enterococcus 146, 7.8 µg/mL (≈ 8.24 µM); against Enterococcus 242 it was 31.2 µg/mL (≈ 33 µM); against Enterococcus 45, 62.5 µg/mL (≈ 66.1 µM). Further, the MIC against Enterococcus 325 was 62.5 µg/mL (≈ 66.1 µM); in [6], 15.6 µg/mL (≈ 16.5 µM).

As for `CCC1OC(=O)C(C)C(OC2CC(C)(OC)C(O)C(C)O2)C(C)C(OC2OC(C)CC(N(C)C)C2O)C(C)(O)CC(C)C(NS(=O)(=O)c2ccc(C)cc2)C(C)C(O)C1(C)O` (stereo not drawn) [EAT, N-(4-methyl-benzenesulfonyl)erythromycylamine], the MIC worked out at 0.9 µg/mL (≈ 1.01 µM) in assay [3]; 0.9 µg/mL (≈ 1.01 µM) in assay [4]; 250 µg/mL (≈ 281 µM) in the assay with Klebsiella aerogenes; 1.9 µg/mL (≈ 2.14 µM) against Diplococcus pneumoniae; 15.6 µg/mL (≈ 17.5 µM) in [5]; 7.8 µg/mL (≈ 8.77 µM) against Enterococcus 146. The MIC against E. coli came out at 62.2 µg/mL (≈ 70 µM); in assay [1], 0.9 µg/mL (≈ 1.01 µM); in assay [2] it was 31.2 µg/mL (≈ 35.1 µM); against Pseudomonas aeruginosa it was 250.0 µg/mL (≈ 281 µM); against Enterococcus 242 it was 3.9 µg/mL (≈ 4.39 µM); with Enterococcus, 3.9 µg/mL (≈ 4.39 µM). The MIC came to 250 µg/mL (≈ 281 µM) against Proteus mirabilis, 7.8 µg/mL (≈ 8.77 µM) against Enterococcus 45, 7.8 µg/mL (≈ 8.77 µM) in the assay on Enterococcus 325 and 7.8 µg/mL (≈ 8.77 µM) in [6].

`CCC1OC(=O)C(C)C(OC2CC(C)(OC)C(O)C(C)O2)C(C)C(OC2OC(C)CC(N(C)C)C2O)C(C)(O)CC(C)C(NS(=O)(=O)c2ccccc2C)C(C)C(O)C1(C)O` (stereo not drawn) [o-EAT, N-(2-methyl-benzenesulfonyl)erythromycylamine]: the MIC in assay [3] was found to be 0.9 µg/mL (≈ 1.01 µM); in [4], 1.9 µg/mL (≈ 2.14 µM); in [5] it was 31.2 µg/mL (≈ 35.1 µM); in the assay on Enterococcus 146, 15.6 µg/mL (≈ 17.5 µM); in the assay with Enterococcus 242, 3.9 µg/mL (≈ 4.39 µM); with Enterococcus 45, 7.8 µg/mL (≈ 8.77 µM). In addition, the results for the MIC (against Enterococcus 325; in assay [6]) were 7.8 µg/mL (≈ 8.77 µM) and 15.6 µg/mL (≈ 17.5 µM), respectively.

(Values after US3983103A, “N-(Benzenesulfonyl)-erythromycylamine derivatives” (PLIVA Pharmaceutical and Chemical Works, priority 1973, dated 1976).)
